Assay results taken from ChEMBL document CHEMBL5390237, “Discovery of Selective Histone Deacetylase 1 and 2 Inhibitors: Screening of a Focused Library Constructed by Click Chemistry, Kinetic Binding Analysis, and Biological Evaluation” (J Med Chem, 2023).
Calls of active or inactive are those of the source. No cut-off for these calls is given here.

How the values were obtained:
[1] = biological target: Histone deacetylase 1 (Homo sapiens, UniProt Q13547); assay: Inhibition of full-length recombinant human C-terminal GST tagged HDAC1 expressed in Sf9 insect cells using aminoluciferin peptide substrate preincubated for 3 hrs followed by substrate addition and measured after 30 mins by HDAC-Glo I/II chemiluminescence assay
Chain of Histone deacetylase 1 (Q13547 whole entry): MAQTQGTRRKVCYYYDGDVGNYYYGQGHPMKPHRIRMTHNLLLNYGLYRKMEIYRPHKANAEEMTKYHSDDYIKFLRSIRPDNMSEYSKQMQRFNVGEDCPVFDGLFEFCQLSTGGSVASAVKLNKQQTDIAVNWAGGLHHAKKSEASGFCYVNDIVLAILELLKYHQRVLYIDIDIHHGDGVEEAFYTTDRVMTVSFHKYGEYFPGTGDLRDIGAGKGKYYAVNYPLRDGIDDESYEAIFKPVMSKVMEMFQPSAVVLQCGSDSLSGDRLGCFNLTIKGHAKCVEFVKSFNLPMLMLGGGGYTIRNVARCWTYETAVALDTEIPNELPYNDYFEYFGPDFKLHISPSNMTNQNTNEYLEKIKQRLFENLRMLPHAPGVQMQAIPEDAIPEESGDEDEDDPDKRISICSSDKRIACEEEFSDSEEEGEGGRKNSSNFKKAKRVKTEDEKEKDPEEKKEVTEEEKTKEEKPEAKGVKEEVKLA

[2] = biological target: T1, Histone deacetylase 8 (Homo sapiens, UniProt Q9BY41); assay: Inhibition of full-length recombinant human C-terminal His-tagged HDAC8 expressed in Sf9 insect cells using aminoluciferin peptide substrate preincubated for 3 hrs followed by substrate addition and measured after 30 mins by HDAC-Glo I/II chemiluminescence assay
T1 sequence (Q9BY41 whole entry): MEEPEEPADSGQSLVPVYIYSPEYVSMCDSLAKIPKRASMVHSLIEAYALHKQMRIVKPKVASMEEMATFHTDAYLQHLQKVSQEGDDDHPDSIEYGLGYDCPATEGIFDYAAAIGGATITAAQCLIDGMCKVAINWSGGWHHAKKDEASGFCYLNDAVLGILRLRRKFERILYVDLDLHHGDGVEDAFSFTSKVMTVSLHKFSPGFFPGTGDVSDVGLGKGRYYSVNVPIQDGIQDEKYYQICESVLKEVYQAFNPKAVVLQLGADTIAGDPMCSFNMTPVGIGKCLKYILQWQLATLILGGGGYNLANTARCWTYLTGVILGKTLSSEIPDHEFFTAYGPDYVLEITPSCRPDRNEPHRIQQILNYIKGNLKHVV

[3] = biological target: Histone deacetylase 5 (Homo sapiens) (UniProt Q9UQL6); assay: Inhibition of recombinant human HDAC5 using fluorogenic substrate preincubated for 3 hrs followed by substrate addition and measured after 30 mins by fluorescence analysis; conditions: time 3.5 hrs
Chain of Histone deacetylase 5 (Homo sapiens) (Q9UQL6 whole entry): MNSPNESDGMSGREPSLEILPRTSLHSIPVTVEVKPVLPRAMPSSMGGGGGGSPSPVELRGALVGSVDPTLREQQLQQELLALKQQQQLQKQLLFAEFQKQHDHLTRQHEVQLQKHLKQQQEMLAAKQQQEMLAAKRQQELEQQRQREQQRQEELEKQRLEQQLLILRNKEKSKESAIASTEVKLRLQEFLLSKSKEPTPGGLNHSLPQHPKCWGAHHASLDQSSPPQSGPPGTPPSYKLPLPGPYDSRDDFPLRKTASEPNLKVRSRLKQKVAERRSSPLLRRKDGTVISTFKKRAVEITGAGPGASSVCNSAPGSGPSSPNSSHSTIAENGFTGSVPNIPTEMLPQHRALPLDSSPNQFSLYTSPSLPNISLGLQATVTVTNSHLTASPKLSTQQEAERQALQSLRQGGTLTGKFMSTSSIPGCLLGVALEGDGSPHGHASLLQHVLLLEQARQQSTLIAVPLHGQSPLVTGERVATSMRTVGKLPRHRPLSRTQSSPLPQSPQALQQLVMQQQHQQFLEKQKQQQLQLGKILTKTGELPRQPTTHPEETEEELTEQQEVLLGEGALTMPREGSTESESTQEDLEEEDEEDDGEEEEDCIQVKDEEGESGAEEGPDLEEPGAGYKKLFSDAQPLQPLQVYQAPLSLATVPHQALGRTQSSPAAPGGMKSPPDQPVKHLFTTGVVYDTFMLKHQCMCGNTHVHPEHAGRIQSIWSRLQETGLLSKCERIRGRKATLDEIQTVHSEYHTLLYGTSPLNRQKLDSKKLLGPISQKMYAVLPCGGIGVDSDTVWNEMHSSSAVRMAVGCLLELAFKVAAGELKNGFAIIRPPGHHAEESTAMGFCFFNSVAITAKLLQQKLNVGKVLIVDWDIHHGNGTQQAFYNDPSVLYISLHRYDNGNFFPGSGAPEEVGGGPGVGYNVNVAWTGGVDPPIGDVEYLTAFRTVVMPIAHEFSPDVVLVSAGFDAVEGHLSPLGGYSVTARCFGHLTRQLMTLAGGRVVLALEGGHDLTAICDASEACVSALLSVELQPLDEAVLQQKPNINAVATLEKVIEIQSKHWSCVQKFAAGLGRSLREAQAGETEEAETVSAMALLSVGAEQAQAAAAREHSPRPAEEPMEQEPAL

[4] = biological target: T2, Protein deacetylase HDAC6 (Homo sapiens) (UniProt Q9UBN7); assay: Inhibition of full-length recombinant human C-terminal GST tagged HDAC6 expressed in Sf9 insect cells using aminoluciferin peptide substrate preincubated for 3 hrs followed by substrate addition and measured after 30 mins by HDAC-Glo I/II chemiluminescence assay; conditions: time 3.5 hrs
T2 sequence (whole entry): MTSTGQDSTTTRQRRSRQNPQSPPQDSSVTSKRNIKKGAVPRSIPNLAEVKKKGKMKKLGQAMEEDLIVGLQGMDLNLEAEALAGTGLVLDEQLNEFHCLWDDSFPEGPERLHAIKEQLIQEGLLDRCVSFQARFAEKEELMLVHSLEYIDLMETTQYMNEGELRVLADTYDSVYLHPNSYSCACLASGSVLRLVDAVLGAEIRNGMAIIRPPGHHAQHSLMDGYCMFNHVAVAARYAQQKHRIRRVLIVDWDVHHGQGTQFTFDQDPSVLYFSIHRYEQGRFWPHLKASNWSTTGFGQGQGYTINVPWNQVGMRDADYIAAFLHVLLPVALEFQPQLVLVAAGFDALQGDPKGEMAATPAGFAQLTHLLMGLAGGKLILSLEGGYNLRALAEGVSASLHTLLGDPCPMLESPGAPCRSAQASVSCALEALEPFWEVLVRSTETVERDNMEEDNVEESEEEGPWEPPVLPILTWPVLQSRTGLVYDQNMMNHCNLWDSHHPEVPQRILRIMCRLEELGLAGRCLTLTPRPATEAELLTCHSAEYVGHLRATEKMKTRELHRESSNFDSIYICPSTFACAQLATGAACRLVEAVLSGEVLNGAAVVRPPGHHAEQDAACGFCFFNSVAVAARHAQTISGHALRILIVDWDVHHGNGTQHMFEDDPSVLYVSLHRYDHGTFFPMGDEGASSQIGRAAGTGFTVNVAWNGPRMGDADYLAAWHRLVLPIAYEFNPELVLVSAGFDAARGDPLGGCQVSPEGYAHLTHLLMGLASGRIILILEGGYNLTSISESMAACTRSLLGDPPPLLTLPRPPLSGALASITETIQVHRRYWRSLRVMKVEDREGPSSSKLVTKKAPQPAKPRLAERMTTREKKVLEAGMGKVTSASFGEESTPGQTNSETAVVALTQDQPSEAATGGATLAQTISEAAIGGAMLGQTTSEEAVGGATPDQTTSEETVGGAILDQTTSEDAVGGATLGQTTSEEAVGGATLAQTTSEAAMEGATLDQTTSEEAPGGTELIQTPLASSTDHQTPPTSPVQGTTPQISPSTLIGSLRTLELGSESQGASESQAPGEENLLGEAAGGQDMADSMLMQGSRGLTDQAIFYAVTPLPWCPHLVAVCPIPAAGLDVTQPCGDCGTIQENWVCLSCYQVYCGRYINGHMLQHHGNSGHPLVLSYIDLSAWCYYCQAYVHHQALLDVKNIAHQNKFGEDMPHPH

[5] = biological target: T3, Histone deacetylase 2 (Homo sapiens, UniProt Q92769); assay: Inhibition of full-length recombinant human C-terminal GST tagged HDAC2 expressed in Sf9 insect cells assessed as second order […] rate constant (k2) using Ac-LGK(Ac)-AMC substrate and measured for 60 mins at 2 mins interval by fluorescence analysis
T3 sequence (Q92769 whole entry): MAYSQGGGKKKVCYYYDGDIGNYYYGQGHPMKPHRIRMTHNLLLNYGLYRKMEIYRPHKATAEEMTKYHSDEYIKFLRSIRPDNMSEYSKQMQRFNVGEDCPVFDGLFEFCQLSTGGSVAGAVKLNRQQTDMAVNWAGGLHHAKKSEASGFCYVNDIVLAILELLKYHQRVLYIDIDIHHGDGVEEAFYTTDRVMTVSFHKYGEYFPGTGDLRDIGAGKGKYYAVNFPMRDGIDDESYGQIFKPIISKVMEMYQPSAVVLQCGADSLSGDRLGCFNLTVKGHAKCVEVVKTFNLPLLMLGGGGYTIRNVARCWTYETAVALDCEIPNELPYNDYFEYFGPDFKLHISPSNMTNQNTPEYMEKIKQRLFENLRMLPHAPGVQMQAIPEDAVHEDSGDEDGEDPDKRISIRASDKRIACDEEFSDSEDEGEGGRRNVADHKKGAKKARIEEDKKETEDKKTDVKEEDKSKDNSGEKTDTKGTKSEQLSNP

[6] = biological target: T3, Histone deacetylase 2; assay: Inhibition of full-length recombinant human C-terminal GST tagged HDAC2 expressed in Sf9 insect cells assessed as second order dissociation rate constant (k-2) using Ac-LGK(Ac)-AMC substrate and measured for 60 mins at 2 mins interval by fluorescence analysis
[7] = system: MCF7; assay: Upregulation of TES gene expression in human MCF7 cells at 2 uM incubated for 24 hrs by RT-qPCR analysis; type: functional, cell-based
[8] = system: MCF7; assay: Upregulation of ERRF1 gene expression in human MCF7 cells at 2 uM incubated for 24 hrs by RT-qPCR analysis; type: functional, cell-based
[9] = system: MCF7; assay: Downregulation of E2F8 gene expression in human MCF7 cells at 2 uM incubated for 24 hrs by microarray analysis; type: functional, cell-based
[10] = system: MCF7; assay: Downregulation of CCNE2 gene expression in human MCF7 cells at 2 uM incubated for 24 hrs by microarray analysis; type: functional, cell-based
[11] = system: N2a; assay: Induction of neurite outgrowth in mouse Neuro2a cells assessed as percentage of neurite-bearing cells at 20 to 2000 nM incubated for 48 hrs by microscopy; type: functional, cell-based; conditions: dose 20-2000 nM
[12] = system: Mus musculus; assay: Neuroprotective activity in BALB/c mouse assessed as increase in spine density in granule neuron dendrites at 1 uM,SCi administered through osmotic minipumps incubated for 48 hrs by bright-field microscopy; type: functional, organism-based
[13] = biological target: T3, Histone deacetylase 2; conditions: Sf9, time 60.0 min
[14] = biological target: T3, Histone deacetylase 2; conditions: Sf9, time 60.0 min; remark: listed apart in the source

IC50 [1] [nM] | IC50 [2] [nM] | inhibition [3] | inhibition [4] | ka [5] [M⁻¹ s⁻¹] | Kdiss [6] [s⁻¹] | ka [13] [M⁻¹ s⁻¹] | Kdiss [14] [s⁻¹] | SMILES | Activity [7] | Activity [8] | Activity [9] | Activity [10] | Activity [11] | Activity [12]
12 | > 10000 | inactive | inactive | 683 | 3.33e-05 |  |  | Nc1ccc(-c2cccs2)cc1NC(=O)c1ccc(-c2cn(CS(=O)(=O)c3ccccc3)nn2)cc1 | Active | Active | Active | Active | Active | Active
8.2 | 4450 | inactive | inactive |  |  | 5330 | 0.000117 | Nc1ccc(-c2cccs2)cc1NC(=O)c1ccc(-c2cn(C[S+]([O-])c3ccccc3)nn2)cc1 (configuration not stated) | Active | Active | Active | Active |  | 
6.5 | > 10000 | inactive | inactive |  |  | 8830 | 8.33e-05 | Nc1ccc(-c2cccs2)cc1NC(=O)c1ccc(-c2cn(CCc3ccccn3)nn2)cc1 | Active | Active | Active | Active |  | 
